This is an account of results in ChEMBL document CHEMBL1146778, “The synthesis and antimicrobial evaluation of a new series of isoxazolinyl oxazolidinones” (2004).

Common to all, as to type: functional
Experiment [1] concerns Escherichia coli. In words: Minimum inhibitory concentration (MIC) against Escherichia coli OC 2530 (HS).
For experiment [2], the system named is Staphylococcus aureus. In words: Minimum inhibitory concentration (MIC) against methicillin-resistant Staphylococcus aureus (MRSA) OC2878.
In experiment [3] the test system is Staphylococcus aureus. In words: Minimum inhibitory concentration (MIC) against Staphylococcus aureus OC 4172 in the presence of 50% mouse serum.
Experiment [4] deals with Staphylococcus aureus. Description: Minimum inhibitory concentration (MIC) against Staphylococcus aureus OC 4172 in the absence of mouse serum.
The next experiment relates to Enterococcus faecium. In words: Minimum inhibitory concentration (MIC) against Enterococcus faecium OC 3312 (VRE).
A further experiment relates to Enterococcus faecalis. Description: Minimum inhibitory concentration (MIC) against Enterococcus faecalis ATCC 29212.
For experiment [5], the system named is Escherichia coli. In words: Minimum inhibitory concentration (MIC) against Escherichia coli OC 2605.
The subject of experiment [6] is Staphylococcus aureus. In words: Tested for the dose to protect the mice from infection with Staphylococcus aureus OC 4172, by subcutaneous administration. To be noted: sc.
The subject of a further experiment is Mus musculus. In words: Tested for the dose to protect the mice from infection with Staphylococcus aureus OC 4172, by oral administration.

In brackets after ≈: the same amount, converted by molar mass. Some results are limits rather than exact numbers.

For orientation: MIC means the lowest concentration found to suppress growth. Turning to `CC(=O)NC[C@H]1CN(c2ccc(C3=NOC(CN4CCOCC4)C3)c(F)c2)C(=O)O1` (stereo partly specified), the minimum inhibitory concentration (MIC) with Escherichia coli [1] is 32 mg/L (≈ 76.1 µM); in the experiment with Staphylococcus aureus [2], 8 mg/L (≈ 19 µM); in the experiment with Staphylococcus aureus [3], 16 mg/L; with Staphylococcus aureus [4] it was 16 mg/L (≈ 38.1 µM); with Enterococcus faecium it was 32 mg/L (≈ 76.1 µM); against Enterococcus faecalis, 16 mg/L (≈ 38.1 µM). The same compound had an MIC with Escherichia coli [5] of 64 mg/L (≈ 152 µM).

Regarding `CC(=O)NC[C@H]1CN(c2ccc(C3=NOC(c4ccncc4)C3)c(F)c2)C(=O)O1` (stereo partly specified), the MIC in the experiment with Escherichia coli [1] is 32 mg/L (≈ 80.3 µM); in the experiment with Staphylococcus aureus [2], 1 mg/L (≈ 2.51 µM); in the experiment with Staphylococcus aureus [3] it was 4 mg/L; against Staphylococcus aureus [4], 4 mg/L (≈ 10 µM); in the experiment with Enterococcus faecium, 4 mg/L (≈ 10 µM); in the experiment on Enterococcus faecalis, 4 mg/L (≈ 10 µM). Further, in the experiment with Escherichia coli [5], the MIC was greater than 64 mg/L.

As to `CC(=O)NC[C@H]1CN(c2ccc(C3=NOC(CN(C)C)C3)c(F)c2)C(=O)O1` (stereo partly specified), the MIC is 64 mg/L (≈ 169 µM) against Escherichia coli [1]; 8 mg/L (≈ 21.1 µM) in the experiment with Staphylococcus aureus [2]; 2 mg/L with Staphylococcus aureus [3]; 8 mg/L (≈ 21.1 µM) in the experiment with Staphylococcus aureus [4]; 8 mg/L (≈ 21.1 µM) in the experiment with Enterococcus faecium; 8 mg/L (≈ 21.1 µM) against Enterococcus faecalis. Also, inhibition of growth against Escherichia coli [5] (MIC) required 128 mg/L (≈ 338 µM).

Regarding `CC(=O)NCC1CC(c2ccc(N3C[C@H](CNC(C)=O)OC3=O)cc2F)=NO1` (stereo partly specified), the MIC is 64 mg/L (≈ 163 µM) against Escherichia coli [1]; 16 mg/L (≈ 40.8 µM) with Staphylococcus aureus [2]; 8 mg/L with Staphylococcus aureus [3]; 8 mg/L (≈ 20.4 µM) with Staphylococcus aureus [4]; 16 mg/L (≈ 40.8 µM) against Enterococcus faecium; 16 mg/L (≈ 40.8 µM) in the experiment on Enterococcus faecalis. Also, the minimal inhibitory concentration (MIC) against Escherichia coli [5] was greater than 64 mg/L.

On to `CNC(=O)C1CC(c2ccc(N3C[C@H](CNC(C)=O)OC3=O)cc2F)=NO1` (stereo partly specified), for which the MIC was determined as 32 mg/L (≈ 84.6 µM) in the experiment on Escherichia coli [1]; 4 mg/L (≈ 10.6 µM) with Staphylococcus aureus [2]; 4 mg/L with Staphylococcus aureus [3]; 4 mg/L (≈ 10.6 µM) in the experiment on Staphylococcus aureus [4]; 4 mg/L (≈ 10.6 µM) in the experiment with Enterococcus faecium; 4 mg/L (≈ 10.6 µM) against Enterococcus faecalis. The compound also yielded an MIC against Escherichia coli [5] greater than 128 mg/L.

As for `CC(=O)NC[C@H]1CN(c2ccc(C3=NOC(Cn4ccnc4)C3)c(F)c2)C(=O)O1` (stereo partly specified), the minimum inhibitory concentration (MIC) against Escherichia coli [1], in the experiment on Staphylococcus aureus [3], against Staphylococcus aureus [4], in the experiment on Enterococcus faecium, against Enterococcus faecalis and with Escherichia coli [5] was greater than 32 mg/L in each case.

Usually ED50 stands for the dose at which the effect has come halfway, by size or by number of responders. High values mean a need for a large dose, low ones an effect at a small dose. Turning to `CC(=O)NC[C@H]1CN(c2ccc(-c3cc(-c4ccccn4)on3)c(F)c2)C(=O)O1`, the MIC with Escherichia coli [1] came out at 64 mg/L (≈ 161 µM); in the experiment on Staphylococcus aureus [2], 2 mg/L (≈ 5.05 µM); in the experiment with Staphylococcus aureus [3], 8 mg/L; in the experiment with Staphylococcus aureus [4] it was 4 mg/L (≈ 10.1 µM); against Enterococcus faecium, 4 mg/L (≈ 10.1 µM); in the experiment with Enterococcus faecalis it was 4 mg/L (≈ 10.1 µM). In addition, the MIC in the experiment on Escherichia coli [5] was greater than 128 mg/L. Further, in the experiment with Staphylococcus aureus [6], the ED50 was greater than 40 mg/kg/day.

On to `CC(=O)NC[C@H]1CN(c2ccc(C3=NOC(c4ccccn4)C3)c(F)c2)C(=O)O1` (stereo partly specified), for which the MIC turned out to be 8 mg/L (≈ 20.1 µM) in the experiment on Escherichia coli [1]; 2 mg/L (≈ 5.02 µM) in the experiment with Staphylococcus aureus [2]; 4 mg/L with Staphylococcus aureus [3]; 2 mg/L (≈ 5.02 µM) against Staphylococcus aureus [4]; 2 mg/L (≈ 5.02 µM) in the experiment with Enterococcus faecium; 2 mg/L (≈ 5.02 µM) against Enterococcus faecalis. The MIC against Escherichia coli [5] is greater than 64 mg/L. Further, the ED50 in the experiment on Staphylococcus aureus [6] worked out at 22.8 mg/kg/day; in the experiment on Mus musculus it was 31.6 mg/kg/day.

In the case of `CC(=O)NC[C@H]1CN(c2ccc(C3=NOC(C#N)C3)c(F)c2)C(=O)O1` (stereo partly specified), the MIC against Escherichia coli [1] was determined as 16 mg/L (≈ 46.2 µM); with Staphylococcus aureus [2], 1 mg/L (≈ 2.89 µM); in the experiment on Staphylococcus aureus [3] it was 1 mg/L; with Staphylococcus aureus [4], 2 mg/L (≈ 5.78 µM); with Enterococcus faecium it was 2 mg/L (≈ 5.78 µM); in the experiment on Enterococcus faecalis, 2 mg/L (≈ 5.78 µM). The compound further showed an MIC with Escherichia coli [5] of 128 mg/L (≈ 370 µM). Besides, the 50% effective dose (ED50) in the experiment with Staphylococcus aureus [6] came out at 22.4 mg/kg/day; with Mus musculus it was 22.1 mg/kg/day.

Turning to `COCCNC(=O)C1CC(c2ccc(N3C[C@H](CNC(C)=O)OC3=O)cc2F)=NO1` (stereo partly specified), the minimal inhibitory concentration (MIC) in the experiment on Escherichia coli [1] was found to be 64 mg/L (≈ 152 µM); with Staphylococcus aureus [2] it was 16 mg/L (≈ 37.9 µM); in the experiment with Staphylococcus aureus [3] it was 8 mg/L; in the experiment with Staphylococcus aureus [4] it was 8 mg/L (≈ 18.9 µM); against Enterococcus faecium, 16 mg/L (≈ 37.9 µM); against Enterococcus faecalis it was 16 mg/L (≈ 37.9 µM). Also, the MIC against Escherichia coli [5] was greater than 64 mg/L.

As to `CC(=O)NC[C@H]1CN(c2ccc(C3=NOC(CN4CCN(C(C)=O)CC4)C3)c(F)c2)C(=O)O1` (stereo partly specified), the MIC against Escherichia coli [1] was found to be 16 mg/L (≈ 34.7 µM); against Staphylococcus aureus [2] it was 8 mg/L (≈ 17.3 µM); in the experiment with Staphylococcus aureus [3], 8 mg/L; in the experiment with Staphylococcus aureus [4], 8 mg/L (≈ 17.3 µM); with Enterococcus faecium it was 16 mg/L (≈ 34.7 µM); with Enterococcus faecalis, 8 mg/L (≈ 17.3 µM). Besides, the MIC in the experiment with Escherichia coli [5] is greater than 32 mg/L.

Regarding `CC(=O)NC[C@H]1CN(c2ccc(N3CCOCC3)c(F)c2)C(=O)O1` [LINEZOLID], the minimal inhibitory concentration (MIC) against Escherichia coli [1] was 16 mg/L (≈ 47.4 µM); with Enterococcus faecium, 4 mg/L (≈ 11.9 µM); in the experiment on Escherichia coli [5], greater than 32 mg/L. Further, the ED50 with Staphylococcus aureus [6] came to 5.4 mg/kg/day; in the experiment with Mus musculus, 6.8 mg/kg/day.

For `COC(=O)c1cc(-c2ccc(N3C[C@H](CNC(C)=O)OC3=O)cc2F)no1`, the MIC with Escherichia coli [1] was 64 mg/L (≈ 170 µM); in the experiment on Staphylococcus aureus [2], 4 mg/L (≈ 10.6 µM); with Staphylococcus aureus [3], greater than 128 mg/L; in the experiment on Staphylococcus aureus [4], 8 mg/L (≈ 21.2 µM); in the experiment with Enterococcus faecium, 8 mg/L (≈ 21.2 µM); in the experiment on Enterococcus faecalis, 16 mg/L (≈ 42.4 µM). Further, the minimal inhibitory concentration (MIC) against Escherichia coli [5] was greater than 128 mg/L.

As to `CC(=O)NC[C@H]1CN(c2ccc(C3=NOC(C(N)=O)C3)c(F)c2)C(=O)O1` (stereo partly specified), the MIC in the experiment on Escherichia coli [1] stood at 32 mg/L (≈ 87.8 µM); against Staphylococcus aureus [2] it was 2 mg/L (≈ 5.49 µM); with Staphylococcus aureus [3], 1 mg/L; against Staphylococcus aureus [4], 2 mg/L (≈ 5.49 µM); in the experiment with Enterococcus faecium it was 4 mg/L (≈ 11 µM); in the experiment on Enterococcus faecalis, 4 mg/L (≈ 11 µM). Moreover, the MIC in the experiment with Escherichia coli [5] is greater than 64 mg/L. Besides, the ED50 is 11.8 mg/kg/day with Staphylococcus aureus [6] and 40 mg/kg/day in the experiment with Mus musculus.

Turning to `CCOC(=O)C1CC(c2ccc(N3C[C@H](CNC(C)=O)OC3=O)cc2F)=NO1` (stereo partly specified), the MIC against Escherichia coli [1] is 128 mg/L (≈ 325 µM); against Staphylococcus aureus [2], 4 mg/L (≈ 10.2 µM); in the experiment with Staphylococcus aureus [3] it was greater than 128 mg/L; against Staphylococcus aureus [4], 8 mg/L (≈ 20.3 µM); in the experiment with Enterococcus faecium, 8 mg/L (≈ 20.3 µM); in the experiment with Enterococcus faecalis it was 16 mg/L (≈ 40.7 µM). The same compound showed an MIC in the experiment on Escherichia coli [5] greater than 128 mg/L.

Consider `CC(=O)NC[C@H]1CN(c2ccc(C3=NOC(C(=O)N4CCOCC4)C3)c(F)c2)C(=O)O1` (stereo partly specified), for which the MIC in the experiment with Escherichia coli [1] is 32 mg/L (≈ 73.7 µM); in the experiment with Staphylococcus aureus [2] it was 8 mg/L (≈ 18.4 µM); with Staphylococcus aureus [3], 8 mg/L; in the experiment on Staphylococcus aureus [4] it was 8 mg/L (≈ 18.4 µM); in the experiment with Enterococcus faecium it was 8 mg/L (≈ 18.4 µM); in the experiment on Enterococcus faecalis, 8 mg/L (≈ 18.4 µM). In addition, in the experiment on Escherichia coli [5], the MIC was greater than 128 mg/L.
